Earlier results, collected in patent US6506736B1, “Method for obtaining and using a combination of a purine nucleotide and nitrogen monoxide donor for treating sexual dysfunction” (priority 1998, dated 2003).

Key:
erectile dysfunction = conditions: 2800 mg L-arginine per day
erection = conditions: dogs; intravenous injection

Structure (SMILES)	cases with favorable effect on erectile dysfunction (erectile dysfunction)	induction of erection (erection)
N=C(N)NCCC[C@H](N)C(=O)O [L-arginine]	approximately 40%	–
Nc1ncnc2c1ncn2[C@@H]1O[C@H](COP(=O)(O)OP(=O)(O)OP(=O)(O)O)[C@@H](O)[C@H]1O [adenosine triphosphate]	–	induces erection
